In assay [1] the target is α1-Adrenergic receptor. Description: α1-Adrenergic receptor binding, [^3 H] prazosin, rat brain cortex membranes. The settings on record: 0.2 nM [^3 H] prazocin, pH 7.4, 30 min, room temperature. The protocol:
(§1) After the removal of nuclei by centrifugation at 1000×g for 10 min, P2 membranes were pelleted by centrifuging the supernatant at 22,000×g for 20 min. After two periods of centrifugation at 22,000×g and resuspension in fresh buffer, the membrane suspension (about 2 mg/ml protein) was ready for use. α1 -Adrenergic receptor binding assays (in triplicate) were carried out with 0.2 nM [^3 H] prazocin in a final volume of 1.0 ml of Tris buffer at pH 7.4 for 30 min at room temperature, using 10 μM phentolamine to determine non-specific binding. The concentrations of synthetic compounds for competition binding were in the range of 0.1-200 nM. α2 -adrenergic receptor binding assays (in triplicate) were carried out with 1 nM [^3 H] clonidine in the presence of 10 mM MgCl2 and in a final volume of 1.0 ml of Tris buffer at pH 7.4 for 30 min at room temperature, using 10 μM clonidine to determine non-specific binding. The concentrations of synthetic compounds for competition binding were in the range of 0.1-100 μM. […] The amount of membrane protein used in each assay was in the range of 300-400 μg, as determined by the method of Lowry et al. The results are given in Table 2. […] All other chemicals used were reagent grade and were purchased from Sigma (St. Louis, Mo.).

Assay [2] in a line: Antihypertensive activity in anesthetized cats (blood pressure). In kind it is in vivo, cat. The conditions noted are these: pentobarbital-anesthetized cats. On the procedure: The pharmacological activities of the compounds of the present invention are described in the following experiment. In this experiment, the test compounds used are as follows.
Adult cats of either sex, 2-3 Kg, anesthetized with pentobarbital sodium (30 mg/Kg i.p.) were used. The trachea was intubated to provide artificial respiration with air by means of a Harvard respirator (respiration rate=6-20/min and colume=40-50 ml/stroke). Both femoral artery and vein were cannulated with PE 150 to monitor blood pressure and for drug administration respectively. Body temperature was maintained at 37.5° C. with a heating pad and monitored with a rectal thermometer. Blood pressure was measured with a Statham P23D pressure transducer via a polyethylene cannula conducted to a right femoral artery. Heart rate was measured through a Grass Model 7B tachograph preamplifier triggered by the pulses of arterial blood pressure. All data were recorded on a Grass Model 7B polygraph.

Assay [3] concerns the target T1, α2-adrenergic receptor (Rattus norvegicus, UniProt P22909).
T1 construct: from tissue; host or cells: rat brain cortex, P2 membranes
T1 sequence (P22909 1-465): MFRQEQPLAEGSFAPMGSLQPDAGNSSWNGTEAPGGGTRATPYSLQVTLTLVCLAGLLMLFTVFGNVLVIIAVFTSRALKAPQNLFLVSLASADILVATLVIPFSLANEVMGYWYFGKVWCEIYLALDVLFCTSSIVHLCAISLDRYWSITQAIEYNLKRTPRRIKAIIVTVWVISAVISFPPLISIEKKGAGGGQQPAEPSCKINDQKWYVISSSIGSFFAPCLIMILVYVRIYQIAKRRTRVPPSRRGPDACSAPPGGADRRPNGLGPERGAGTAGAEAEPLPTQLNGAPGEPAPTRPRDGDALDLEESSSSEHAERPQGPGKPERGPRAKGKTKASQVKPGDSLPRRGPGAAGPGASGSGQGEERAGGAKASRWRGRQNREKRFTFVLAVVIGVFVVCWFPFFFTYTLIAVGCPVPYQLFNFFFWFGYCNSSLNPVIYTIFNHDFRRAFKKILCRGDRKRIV
Put plainly: α2-Adrenergic receptor binding, [^3 H] clonidine, rat brain cortex membranes. The conditions noted are these: 1 nM [^3 H] clonidine, 10 mM MgCl2, pH 7.4, 30 min, room temperature. The protocol:
as §1

The conditions of assay [4]: acting as serotonin-S2 and α1-adrenoceptor antagonist, respectively; cited from earlier work.

Some results are limits rather than exact numbers.

The compound `CSC1=Nc2ccccc2C2=NCC(CN3CCN(c4ccccc4)CC3)N12` (stereo not drawn) [Example 5, 3-[4-(1-Phenyl)piperazinyl]methyl-5-methylthio-2,3-dihydroimidazo[1,2-c]quinazoline] displayed a Ki in assay [1] greater than 10 nM.
`COc1ccccc1N1CCN(CC2CN=C3c4ccccc4N=C(SC)N32)CC1` (stereo not drawn) [Example 6, 3-{4-[1-(2-methoxyphenyl)piperazinyl]}methyl-5-methylthio-2,3-dihydroimidazo[1,2-c]quinazoline]: in assay [1], the Ki was 0.54 ± 0.09 nM. Further, the “MBP (2 hr)” value in assay [2] (dose 1 mg/Kg) was 70 mmHg.
As for `COc1cccc(N2CCN(CC3CN=C4c5ccccc5N=C(SC)N43)CC2)c1` (stereo not drawn) [Example 7, 3-{4-[1-(3-methoxyphenyl)piperazinyl]}methyl-5-methylthio-2,3-dihydroimidazo[1,2-c]quinazoline], the Ki in assay [3] was found to be 8360 ± 588 nM; in assay [1] it was 48.9 ± 20.4 nM.
Regarding `CSC1=Nc2ccccc2C2=NCC(CN3CCN(c4ccccc4Cl)CC3)N12` (stereo not drawn) [Example 9, 3-{4-[1-(2-chlorophenyl)piperazinyl]}methyl-5-methylthio-2,3-dihydroimidazo[1,2-c]quinazoline], the Ki in assay [3] was determined as 180 ± 7 nM; in assay [1], 0.34 ± 0.06 nM. Further, the “MBP (2 hr)” value in assay [2] (dose 1 mg/Kg) came out at 30 mmHg.
`COC1=Nc2ccccc2C2=NCC(CN3CCN(c4ccccc4OC)CC3)N12` (stereo not drawn) [Example 12, 3-{4-[1-(2-Methoxyphenyl)piperazinyl]}methyl-5-methoxy-2,3-dihydroimidazo[1,2-c]quinazoline]: in assay [1], affinity was put at a Ki of 0.07 ± 0.007 nM.
For the compound `COC1=Nc2ccccc2C2=NCC(CN3CCN(c4cccc(OC)c4)CC3)N12` (stereo not drawn) [Example 14, 3-{4-[1-(3-methoxyphenyl)piperazinyl]}methyl-5-methoxy-2,3-dihydroimidazo[1,2-c]quinazoline], the Ki in assay [1] was greater than 100 nM.
As for `COC1=Nc2ccccc2C2=NCC(CN3CCN(c4ccccc4Cl)CC3)N12` (stereo not drawn) [Example 16, 3-{4-[1-(2-chlorophenyl)piperazinyl]}methyl-5-methoxy-2,3-dihydroimidazo[1,2-c]quinazoline], the “MBP (2 hr)” value in assay [2] (dose 1 mg/Kg) was determined as 23 mmHg.
Take `O=C1Nc2ccccc2C2=NCC(CN3CCN(c4ccccc4)CC3)N12` (stereo not drawn) [Example 17, 3-(4-Phenyl-1-piperazinyl)-methyl-2,3-dihydroimidazo[1,2-c]quinazolin-5(6H)-one]: the affinity in assay [3], expressed as Ki, was 962 ± 29 nM.
Take `COc1ccccc1N1CCN(CC2CN=C3c4ccccc4NC(=O)N32)CC1` (stereo not drawn) [Example 18, 3-{4-[1-(2-methoxyphenyl)piperazinyl]}methyl-2,3-dihydroimidazo[1,2-c]quinazolin-5(6H)-one]: the affinity in assay [1], expressed as Ki, was 0.45 ± 0.09 nM. In addition, the “MBP (2 hr)” value in assay [2] (dose 1 mg/Kg) came to 50 mmHg.
Regarding `COc1cccc(N2CCN(CC3CN=C4c5ccccc5NC(=O)N43)CC2)c1` (stereo not drawn) [Example 19, 3-{4-[1-(3-methoxyphenyl)piperazinyl]}methyl-2,3-dihydroimidazo[1,2-c]-quinazolin-5(6H)-one], the affinity in assay [1], expressed as Ki, was 5.76 ± 0.48 nM.
With `O=C1Nc2ccccc2C2=NCC(CN3CCN(c4ccccc4Cl)CC3)N12` (stereo not drawn) [Example 21, 3-{4-[1-(2-chlorophenyl)piperazinyl]}methyl-2,3-dihydroimidazo[1,2-c]quinazolin-5(6H)-one], in assay [1], the affinity corresponds to a Ki of 0.58 ± 0.07 nM. Further, in assay [2] (dose 1 mg/Kg), the “MBP (2 hr)” value is 35 mmHg.
As to `CN1C(=O)N2C(=NCC2CN2CCN(c3ccccc3Cl)CC2)c2ccccc21` (stereo not drawn) [Example 22, 3-{4-[1-(2-chlorophenyl)piperazinyl]}methyl-6-methyl-2,3-dihydroimidazo[1,2-c]quinazolin-5(6H)-one], in assay [2] (dose 1 mg/Kg), the “MBP (2 hr)” value is given as 50 mmHg.
For `COc1ccccc1N1CCN(CC2CN=C3c4ccccc4N(C)C(=O)N32)CC1` (stereo not drawn) [Example 23, 3-{4-[1-(2-methoxyphenyl)piperazinyl]}methyl-6-methyl-2,3-dihydroimidazo[1,2-c]quinazolin-5(6H)-one], the affinity in assay [1], expressed as Ki, was 0.36 ± 0.05 nM. The entries for the “MBP (2 hr)” value in assay [2] (dose 0.25 mg/Kg) and in assay [2] (dose 1 mg/Kg) were 40 mmHg and 63 mmHg, respectively.
In assay [1], `COc1ccccc1N1CCN(CCn2c(=O)[nH]c3ccccc3c2=O)CC1.Cl` [SGB-1534, reference compound] showed a Ki of 0.25 ± 0.06 nM. Besides, in assay [4], the “antihypertensive activity (in words), background art” value is given as “found to have antihypertensive activities”.
`O=C(c1ccc(F)cc1)C1CCN(CCn2c(=S)[nH]c3ccccc3c2=O)CC1` [thioketanserin]: the “antihypertensive activity (in words), background art” value in assay [4] is “found to have antihypertensive activities”.

The values are drawn from US5340814A, “3-substituted methyl-2,3-dihydroimidazo[1,2-C] quinazoline derivatives, the preparation and use thereof” (National Science Council, priority 1992, dated 1994).
